The numbers were not newly measured in patent publication US20230321114A1, “METHODS OF TREATING AGE-RELATED COGNITIVE DECLINE” (Woolsey Pharmaceuticals, Inc., priority 2020, published 2023), which cites them from elsewhere.

The conditions of data set [1]: in vivo, metabolite.
The subject of data set [2] is memory in aging rats. The following applies: eighteen-month old rats, 0.1875 or 0.3750 mg per day, single daily injection.

Regarding `O=S(=O)(c1cccc2c(O)nccc12)N1CCCNCC1` [hydroxyfasudil], the half-life entry in data set [1] is given as “about 8 hours”. In addition, the spatial reference memory result in data set [2] (Morris Water Maze) is given as “not in spatial reference memory”. Further, the working memory entry in data set [2] (Morris Water Maze (radial maze)) was “improvements in working memory”.
